Measurements taken from patent US20100234815A1, “STABLE MELT PROCESSABLE CHLORHEXIDINE COMPOSITIONS” (Teleflex Medical Incorporated, priority 2009, published 2010).

Key:
Format in all cases: physicochemical
[1] = HPLC of CHA extracted from PVC compounded resin
Protocol: Separate samples of polyvinyl chloride (shore 65A and shore 85A respectively) and chlorhexidine diacetate were separately fed into an 18 mm Leistritz twin screw intermeshing extruder from K-tron feeders at rates of 2.0 kg/hr and 0.2 kg/hr, respectively. The barrel zone temperatures were set from 140° C. thru 155° C. The extrudate was pelletized into small pellets.
(§1) Chlorhexidine diacetate content of the prepared samples was extracted with 1:1 tetrahydrofuran (THF): H2O and analyzed on the Agilent Eclipse XDB-CN 5u 4.6×150 mm column with guard column. Briefly, 2 centimeter (cm) sample segments were extracted with 5 mL of THF and 5 mL of H2O, vortexed, and centrifuged. HPLC analysis was run on an Agilent Eclipse XDB-CN 5u 4.6×150 mm column and 4.6×12.5 mm Eclipse XDB-CN guard column, with a mixture of deionized water, acetonitrile, and trifluoroacetic acid as the mobile phase. Concentrations of the analytes were determined via calibration curves.
(§2) In addition to the experimental conditions described with reference to FIG. 7, chlorhexidine diacetate compounded in polyvinyl chloride (Shore A hardness of 60 & 85) was subjected to melt temperatures ranging from about 145° C. to about 176° C. The concentration of the analytes was determined via a calibration curve as described in the following Table 6.

[2] = HPLC of CHA extracted from Versaflex CL30 compounded resin; conditions: for 4.1 peak (CHA) / RRT 0.6 (degradant) / RRT 1.3 (degradant) / RRT 1.6 (degradant): Versaflex CL30 compounded resin
Protocol: Versaflex® CL30 and chlorhexidine diacetate were separately fed into an 18 mm Leistritz twin screw intermeshing extruder from K-tron feeders at rates of 2.5 kg/hr and 0.25 kg/hr, respectively. The barrel zone temperatures were set from 131° C. thru 148° C. The extrudate was pelletized into small pellets.
as §1

[3] = HPLC of chlorhexidine diacetate extracted from low melt temperature Tecoflex-93A compounded resin; conditions: for 4.289 peak (CHA) / RRT 0.6 (degradant) / RRT 1.3 (degradant) / RRT 1.6 (degradant): low melt temperature (LMT) Tecoflex-93A
Protocol: Low melting temperature Tecoflex-93A and chlorhexidine diacetate were separately fed into al 8 mm Leistritz twin screw intermeshing extruder from K-tron feeders at rates of 1 kg/hr and 0.1 kg/hr, respectively. The barrel zone temperatures were set at 121° C. for all zones. The extrudate was pelletized into small pellets.
as §1
as §2, with “3,” for “7,”, “low melt temperature Tecoflex-93A” for “polyvinyl chloride (Shore A hardness of 60 & 85)”, “131°” for “145°”, “137°” for “176°”, “2.” for “6.”

[4] = HPLC of CHA extracted from co-extruded 7Fr single lumen tubing
Protocol: […] Co-extruded tubing was also analyzed for chlorhexidine degradants.
as §1

[5] = HPLC of chlorhexidine diacetate extracted from Tecothane-2095A compounded resin (thermal degradation on melt processing); conditions: for 4.1 peak (CHA) / RRT 0.6 (degradant) / RRT 1.3 (degradant) / RRT 1.6 (degradant): Tecothane-2095A compounded resin
Text: Tecothane®-2095A was coated with 5% w/w polytetramethyleneoxide (PTMO) of molecular weight (MW)=1000 by mixing 45.1 gram (g) of PTMO with 900g Tecothane®-2095A. The PTMO coated resin and chlorhexidine diacetate were separately fed into an 18 millimeter (mm) Leistritz twin screw intermeshing extruder (Somerville, N.J.) from K-Tron feeders (Pitman, N.J.) at rates of 2.5 kilograms per hour (kg/hr) and 0.25 kg/hr, respectively. The extruder was set at 112 revolutions per minute (rpm) for screw speed and the barrel zone temperatures were set from 145° C. thru 178° C. The extrudate was pelletized into small pellets.
as §1
as §2, with “2,” for “7,”, “Tecothane 2095A” for “polyvinyl chloride (Shore A hardness of 60 & 85)”, “139°” for “145°”, “172°” for “176°”, “and the” for “The”, “1.” for “6.”

[6] = HPLC of chlorhexidine dodecanoate extracted from LMT Tecoflex-93A compounded resin; conditions: for 4.289 peak (CHDD) / RRT 0.6 (degradant) / RRT 1.3 (degradant) / RRT 1.6 (degradant): LMT Tecoflex-93A compounded resin
[7] = PVC 60A compounded resin, melt temp 145 °C (condition 1)
[8] = PVC 60A compounded resin, melt temp 154 °C (condition 2)
[9] = PVC 60A compounded resin, melt temp 159 °C (condition 3)
[10] = PVC 60A compounded resin, melt temp 165 °C (condition 4)
[11] = PVC 60A compounded resin, melt temp 171 °C (condition 5)
[12] = PVC 85A compounded resin, melt temp 155 °C (condition 1)
[13] = PVC 85A compounded resin, melt temp 159 °C (condition 2)
[14] = PVC 85A compounded resin, melt temp 163 °C (condition 3)
[15] = PVC 85A compounded resin, melt temp 167 °C (condition 4)
[16] = PVC 85A compounded resin, melt temp 170 °C (condition 5)
[17] = PVC 85A compounded resin, melt temp 176 °C (condition 6)
[18] = co-extruded 7Fr single lumen, melt temp 135 °C (condition 1)

## CC(=O)O.CC(=O)O.NC(=N\CCCCCC/N=C(N)/N=C(\N)Nc1ccc(Cl)cc1)/N=C(\N)Nc1ccc(Cl)cc1 [CHA, chlorhexidine diacetate]
[1]; [7]
  % Peak area (degradant): Not detected
  % Peak area CHA: 100%
[1]; [8]
  % Peak area (degradant): Not detected
  % Peak area CHA: 100%
[1]; [9]
  % Peak area (degradant): Not detected
  % Peak area CHA: 100%
[1]; [10]
  % Peak area (degradant): Not detected
  % Peak area CHA: 100%
[1]; [11]
  % Peak area (degradant): 0.4%
  % Peak area CHA: 99.6%
[1]; [12]
  % Peak area (degradant): Not detected
  % Peak area CHA: 100%
[1]; [13]
  % Peak area (degradant): Not detected
  % Peak area CHA: 100%
[1]; [14]
  % Peak area (degradant): Not detected
  % Peak area CHA: 100%
[1]; [15]
  % Peak area (degradant): 0.4%
  % Peak area CHA: 99.6%
[1]; [16]
  % Peak area (degradant): 0.3%
  % Peak area CHA: 99.7%
[1]; [17]
  % Peak area (degradant): 0.7%
  % Peak area CHA: 99.3%
[1]; compounded in polyvinyl chloride (Shore A hardness of 65), melt temperature 145 °C, 280 nm
  thermal degradation on melt processing (HPLC, FIG. 5): did not degrade
[1]; compounded in polyvinyl chloride (Shore A hardness of 85), melt temperature 155 °C, 280 nm
  thermal degradation on melt processing (HPLC, FIG. 6): did not degrade
[1]; compounded in polyvinyl chloride (Shore A hardness of 85), processed at 176 °C, 280 nm
  amount of degradant generated (HPLC, FIG. 7): less than 1%
[2]; melt temp 101 °C (condition 1)
  4.1 peak (CHA): 100
  RRT 0.6 (degradant): Not detected
  RRT 1.3 (degradant): Not detected
  RRT 1.6 (degradant): Not detected
[2]; melt temp 121 °C (condition 2)
  4.1 peak (CHA): 100
  RRT 0.6 (degradant): Not detected
  RRT 1.3 (degradant): Not detected
  RRT 1.6 (degradant): Not detected
[2]; melt temp 129 °C (condition 3)
  4.1 peak (CHA): 100
  RRT 0.6 (degradant): Not detected
  RRT 1.3 (degradant): Not detected
  RRT 1.6 (degradant): Not detected
[2]; melt temp 139 °C (condition 4)
  4.1 peak (CHA): 100
  RRT 0.6 (degradant): Not detected
  RRT 1.3 (degradant): Not detected
  RRT 1.6 (degradant): Not detected
[2]; melt temp 144 °C (condition 5)
  4.1 peak (CHA): 100
  RRT 0.6 (degradant): Not detected
  RRT 1.3 (degradant): Not detected
  RRT 1.6 (degradant): Not detected
[2]; melt temp 149 °C (condition 6)
  4.1 peak (CHA): 100
  RRT 0.6 (degradant): Not detected
  RRT 1.3 (degradant): Not detected
  RRT 1.6 (degradant): Not detected
[2]; melt temp 153 °C (condition 7)
  4.1 peak (CHA): 100
  RRT 0.6 (degradant): Not detected
  RRT 1.3 (degradant): Not detected
  RRT 1.6 (degradant): Not detected
[2]; melt temp 161 °C (condition 8)
  4.1 peak (CHA): 100
  RRT 0.6 (degradant): Not detected
  RRT 1.3 (degradant): Not detected
  RRT 1.6 (degradant): Not detected
[3]; compounded in low melt temperature Tecoflex-93A, melt temperature 136 °C, 280 nm
  thermal degradation on melt processing (HPLC, FIG. 3): did not degrade
[3]; melt temp 131 °C (condition 1)
  4.289 peak (CHA): 100
  RRT 0.6 (degradant): Not detected
  RRT 1.3 (degradant): Not detected
  RRT 1.6 (degradant): Not detected
[3]; melt temp 137 °C (condition 2)
  4.289 peak (CHA): 100
  RRT 0.6 (degradant): Non-detected
  RRT 1.3 (degradant): Not detected
  RRT 1.6 (degradant): Not detected
[3]; with polyurethanes
  stable processing temperature limit: about 137 °C
[4]; [18]
  4.289 peak (CHA): 100
  RRT 0.6 (degradant): Not detected
  RRT 1.3 (degradant): Not detected
  RRT 1.6 (degradant): Not detected
[4]; with polyurethanes, from Table 4 (co-extruded 7Fr single lumen)
  stable processing temperature limit: at least 135 °C
[5]; melt temp 139 °C (condition 1)
  4.1 peak (CHA): 89%
  RRT 0.6 (degradant): 3%
  RRT 1.3 (degradant): 8%
  RRT 1.6 (degradant): 1%
[5]; melt temp 142 °C (condition 2)
  4.1 peak (CHA): 88%
  RRT 0.6 (degradant): 3%
  RRT 1.3 (degradant): 8%
  RRT 1.6 (degradant): 1%
[5]; melt temp 144 °C (condition 3)
  4.1 peak (CHA): 84%
  RRT 0.6 (degradant): 4%
  RRT 1.3 (degradant): 11%
  RRT 1.6 (degradant): 1%
[5]; melt temp 172 °C (condition 4)
  4.1 peak (CHA): 77%
  RRT 0.6 (degradant): 7%
  RRT 1.3 (degradant): 13%
  RRT 1.6 (degradant): 3%
[5]; compounded in Tecothane 2095A, melt temperature 164 °C, 280 nm
  thermal degradation on melt processing (HPLC, FIG. 2): degrades into several products

## [H]/N=C(\N/C(=N/[H])NCCCCCCNC(=N)NC(=N)Nc1ccc(Cl)cc1)Nc1ccc(Cl)cc1 [chlorhexidine]
[1]; with vinyl polymers (PVC 60A & 85A)
  processing temperature at which thermally stable: ≤ 165 °C
[2]; with polyolefin thermoplastic elastomers (Versaflex CL30)
  processing temperature at which thermally stable: up to 161 °C

## CCCCCCCCCCCC(=O)O.NC(=NCCCCCCN=C(N)N=C(N)Nc1ccc(Cl)cc1)N=C(N)Nc1ccc(Cl)cc1 [CHDD, chlorhexidine dodecanoate]
[6]; melt temp 132 °C (condition 1)
  4.289 peak (CHDD): 100
  RRT 0.6 (degradant): Non-detected
  RRT 1.3 (degradant): Not detected
  RRT 1.6 (degradant): Not detected
[6]; melt temp 136 °C (condition 2)
  4.289 peak (CHDD): 100
  RRT 0.6 (degradant): Non-detected
  RRT 1.3 (degradant): Not detected
  RRT 1.6 (degradant): Not detected
[6]; compounded in low melt temperature Tecoflex-93A, melt temperature 137 °C, 280 nm
  thermal degradation on melt processing (HPLC, FIG. 4): did not degrade
[6]; with polyurethanes
  stable processing temperature limit: at least 136 °C
